Results on 13 compounds are retold here after BindingDB's records for patent US20230399319 (Japan Tobacco, 2023).

NACHT, LRR and PYD domains-containing protein 3, sequence (Q96P20 whole entry, the tested form may be a part): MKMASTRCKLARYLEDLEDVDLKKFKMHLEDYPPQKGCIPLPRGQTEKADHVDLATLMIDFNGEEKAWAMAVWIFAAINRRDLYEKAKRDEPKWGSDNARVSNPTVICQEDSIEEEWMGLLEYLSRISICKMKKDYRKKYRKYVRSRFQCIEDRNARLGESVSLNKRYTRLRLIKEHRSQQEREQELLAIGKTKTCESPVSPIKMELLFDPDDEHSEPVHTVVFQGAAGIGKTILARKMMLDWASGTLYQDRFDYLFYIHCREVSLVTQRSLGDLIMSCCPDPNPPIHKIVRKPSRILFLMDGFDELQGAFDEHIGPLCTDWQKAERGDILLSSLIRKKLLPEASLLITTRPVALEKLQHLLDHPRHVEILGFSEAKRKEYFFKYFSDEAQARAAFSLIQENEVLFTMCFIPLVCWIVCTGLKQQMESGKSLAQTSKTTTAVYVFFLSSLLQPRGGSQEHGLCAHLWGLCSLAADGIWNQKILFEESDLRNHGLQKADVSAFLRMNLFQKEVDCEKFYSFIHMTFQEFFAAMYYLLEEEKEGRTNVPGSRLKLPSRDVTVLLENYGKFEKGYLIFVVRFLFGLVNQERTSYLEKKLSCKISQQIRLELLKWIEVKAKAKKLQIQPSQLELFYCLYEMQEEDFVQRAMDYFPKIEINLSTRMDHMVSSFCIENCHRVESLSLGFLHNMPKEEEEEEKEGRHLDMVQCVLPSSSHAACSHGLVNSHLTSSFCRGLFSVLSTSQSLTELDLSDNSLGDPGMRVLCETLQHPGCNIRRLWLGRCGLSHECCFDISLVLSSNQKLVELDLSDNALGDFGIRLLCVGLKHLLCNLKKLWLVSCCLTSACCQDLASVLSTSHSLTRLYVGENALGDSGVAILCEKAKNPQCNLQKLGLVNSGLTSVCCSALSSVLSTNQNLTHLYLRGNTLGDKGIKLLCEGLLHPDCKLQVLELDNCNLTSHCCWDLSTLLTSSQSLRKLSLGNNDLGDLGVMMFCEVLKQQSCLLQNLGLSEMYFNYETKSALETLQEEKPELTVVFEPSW

The test has as its target NACHT, LRR and PYD domains-containing protein 3 (Homo sapiens, UniProt Q96P20). The experiment in a line: Evaluation of NLRP3 Inflammasome Inhibitory Activity Assay. The method, then:
The NLRP3 inflammasome inhibitory activity of test compounds were evaluated CM the basis of the inhibitory activity of the IL-1β, production in THP1-Null cells (Product Number: thp-null, InvivoGen). […] A solution containing a test compound (20 μL/well) was added to test compound-setting wells. […] The supernatant of the culture was cryonically stored (set at −20° C.) until measurement of IL-1β.
`Cc1ccc(C(F)(F)F)cc1Nc1nc(C(=O)NS(=O)(=O)N(C)CCS(C)(=O)=O)co1` [US20230399319, Example 2-280] displayed a half-inhibitory concentration (IC50) of 420 nM.

As for `Cc1ccc(C)c(Nc2nc(C(=O)NS(=O)(=O)N3CCCC(C#N)CC3)co2)c1` (stereo not drawn) [US20230399319, Example 2-300], the IC50 came to 190 nM.

Compound `COC[C@@H]1CCCN1S(=O)(=O)NC(=O)c1coc(Nc2cc(C)ccc2C)n1` [US20230399319, Example 2-303] showed a concentration for half-maximal inhibition (IC50) of 140 nM.

`Cc1ccc(C(F)(F)F)cc1Nc1nc(C(=O)NS(=O)(=O)N2CCN(c3ncccn3)CC2)co1` [US20230399319, Example 2-265] had an IC50 of 1100 nM.

`COCCC1(C#N)CCCN(S(=O)(=O)NC(=O)c2coc(Nc3cc(C(F)(F)F)ccc3C)n2)CC1` (stereo not drawn) [US20230399319, Example 2-250] returned an IC50 of 30 nM.

The compound `COC[C@@H]1CCCN1S(=O)(=O)NC(=O)c1coc(Nc2cc(C(F)(F)F)ccc2C)n1` [US20230399319, Example 2-038] registered a 50% inhibitory concentration (IC50) of less than 30 nM.

On to `Cc1ccc(C(F)(F)F)cc1Nc1nc(C(=O)NS(=O)(=O)N2CCCCC2C(F)F)co1` (stereo not drawn) [US20230399319, Example 2-187], for which the IC50 was found to be 110 nM.

The compound `Cc1ccc(C(F)(F)F)cc1Nc1nc(C(=O)NS(=O)(=O)N(C)CCC(=O)N(C)C)co1` [US20230399319, Example 2-338] showed a concentration for half-maximal inhibition (IC50) of 77 nM.

Compound `Cc1ccc(C(F)(F)F)cc1Nc1nc(C(=O)NS(=O)(=O)N(Cc2ccccc2)C(C)C)co1` [US20230399319, Example 2-207] came in with an IC50 of 180 nM.

In the case of `Cc1ccc(C)c(Nc2nc(C(=O)NS(=O)(=O)N3CCOC(COCC4CCC4)CC3)co2)c1` (stereo not drawn) [US20230399319, Example 2-342], the IC50 worked out at 10 nM.

Compound `Cc1ccc(C(F)(F)F)cc1Nc1nc(C(=O)NS(=O)(=O)N(C)C2CC2)co1` [US20230399319, Example 2-165] returned an IC50 of 100 nM.

`Cc1ccc(C(F)(F)F)cc1Nc1nc(C(=O)NS(=O)(=O)N2CCC(C)C2)co1` (stereo not drawn) [US20230399319, Example 2-019] returned an IC50 of 70 nM. This IC50 and that of the compound before are within 1.5-fold of each other.

Compound `CCC(=O)N(C)C1CCCN(S(=O)(=O)NC(=O)c2coc(Nc3cc(C(F)(F)F)ccc3C)n2)C1` (stereo not drawn) [US20230399319, Example 2-255] came in with a 50% inhibitory concentration (IC50) of 210 nM. Compared with the last compound, the IC50 is about 3-fold higher.
